Measured values taken from US12049450B2, “Pyridyloxy-carboxylate derivative and preparation method therefor, herbicidal composition, and use” (Qingdao Kingagroot Chemical Compound Co., Ltd., priority 2018, dated 2024).

Columns and labels:
Test in all cases: Post-emergence test experiment (greenhouse pot, spray at 2-3 leaf stage)
Format in all cases: in vivo
Details in all cases: 1000 g/ha; post-emergence spray at 2-3 leaf stage; assessed after 3 weeks; fresh weight inhibition rate
Monochoria vaginalis = test system: Monochoria vaginalis
Summary of the method: (§1)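 Weed seeds sown in soil-filled pots in greenhouse, sprayed at 2-3 leaf stage (2 weeks after sowing) with compound in acetone/tween-80 plus methyl oleate emulsible concentrate (1.5 L/ha) diluted in water. Fresh-weight growth inhibition scored after 3 weeks on 0-5 scale (5: >85%, 0: <5%).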

Echinochloa crusgalli = test system: Echinochloa crusgalli
Summary of the method: as §1

Abutilon theophrasti = test system: Abutilon theophrasti
Summary of the method: as §1

Galium spurium = test system: Galium spurium
Summary of the method: as §1

Digitaria sanguinalis = test system: Digitaria sanguinalis
Summary of the method: as §1

| SMILES | Activity level (growth inhibition rate) Monochoria Vaginalis (Monochoria vaginalis) | Activity level (growth inhibition rate) Echinochloa crusgalli (Echinochloa crusgalli) | Activity level (growth inhibition rate) Abutilon theophrasti (Abutilon theophrasti) | Activity level (growth inhibition rate) Galium spurium (Galium spurium) | Activity level (growth inhibition rate) Digitaria sanguinalis (Digitaria sanguinalis) |
| --- | --- | --- | --- | --- | --- |
| Cc1noc(C)c1COC(=O)C(C)Oc1nc(F)c(Cl)c(N)c1Cl (centres unmarked) [Compound 147] | 5 (Level 5: the growth inhibition rate is greater than 85%) | 5 (Level 5: the growth inhibition rate is greater than 85%) | 5 (Level 5: the growth inhibition rate is greater than 85%) | 5 (Level 5: the growth inhibition rate is greater than 85%) | 5 (Level 5: the growth inhibition rate is greater than 85%) |
| CC(Oc1nc(F)c(Cl)c(N)c1Cl)C(=O)OCCc1nnco1 (centres unmarked) [Compound 148] | 5 (Level 5: the growth inhibition rate is greater than 85%) | 5 (Level 5: the growth inhibition rate is greater than 85%) | 5 (Level 5: the growth inhibition rate is greater than 85%) | 5 (Level 5: the growth inhibition rate is greater than 85%) | 5 (Level 5: the growth inhibition rate is greater than 85%) |
| CC(Oc1nc(F)c(Cl)c(N)c1Cl)C(=O)SCc1nnco1 (centres unmarked) [Compound 149] | 5 (Level 5: the growth inhibition rate is greater than 85%) | 5 (Level 5: the growth inhibition rate is greater than 85%) | 5 (Level 5: the growth inhibition rate is greater than 85%) | 5 (Level 5: the growth inhibition rate is greater than 85%) | 5 (Level 5: the growth inhibition rate is greater than 85%) |
| CC(Oc1nc(F)c(Cl)c(N)c1Cl)C(=O)SC(C)c1ncon1 (centres unmarked) [Compound 150] | 5 (Level 5: the growth inhibition rate is greater than 85%) | 5 (Level 5: the growth inhibition rate is greater than 85%) | 5 (Level 5: the growth inhibition rate is greater than 85%) | 5 (Level 5: the growth inhibition rate is greater than 85%) | 5 (Level 5: the growth inhibition rate is greater than 85%) |
| CC(Oc1nc(F)c(Cl)c(N)c1Cl)C(=O)OCc1ncno1 (centres unmarked) [Compound 151] | 5 (Level 5: the growth inhibition rate is greater than 85%) | 5 (Level 5: the growth inhibition rate is greater than 85%) | 5 (Level 5: the growth inhibition rate is greater than 85%) | 5 (Level 5: the growth inhibition rate is greater than 85%) | 5 (Level 5: the growth inhibition rate is greater than 85%) |
| CC(Oc1nc(F)c(Cl)c(N)c1Cl)C(=O)SCCc1cnno1 (centres unmarked) [Compound 152] | 5 (Level 5: the growth inhibition rate is greater than 85%) | 5 (Level 5: the growth inhibition rate is greater than 85%) | 5 (Level 5: the growth inhibition rate is greater than 85%) | 5 (Level 5: the growth inhibition rate is greater than 85%) | 5 (Level 5: the growth inhibition rate is greater than 85%) |
| CC(Oc1nc(F)c(Cl)c(N)c1Cl)C(=O)OCc1conn1 (centres unmarked) [Compound 153] | 5 (Level 5: the growth inhibition rate is greater than 85%) | 5 (Level 5: the growth inhibition rate is greater than 85%) | 5 (Level 5: the growth inhibition rate is greater than 85%) | 5 (Level 5: the growth inhibition rate is greater than 85%) | 5 (Level 5: the growth inhibition rate is greater than 85%) |
| CC(Oc1nc(F)c(Cl)c(N)c1Cl)C(=O)SCc1cccs1 (centres unmarked) [Compound 154] | 5 (Level 5: the growth inhibition rate is greater than 85%) | 5 (Level 5: the growth inhibition rate is greater than 85%) | 5 (Level 5: the growth inhibition rate is greater than 85%) | 5 (Level 5: the growth inhibition rate is greater than 85%) | 5 (Level 5: the growth inhibition rate is greater than 85%) |
| Cc1sc(C)c(COC(=O)C(C)Oc2nc(F)c(Cl)c(N)c2Cl)c1C (centres unmarked) [Compound 155] | 5 (Level 5: the growth inhibition rate is greater than 85%) | 5 (Level 5: the growth inhibition rate is greater than 85%) | 5 (Level 5: the growth inhibition rate is greater than 85%) | 5 (Level 5: the growth inhibition rate is greater than 85%) | 5 (Level 5: the growth inhibition rate is greater than 85%) |
| CC(Oc1nc(F)c(Cl)c(N)c1Cl)C(=O)SCc1nccs1 (centres unmarked) [Compound 156] | 5 (Level 5: the growth inhibition rate is greater than 85%) | 5 (Level 5: the growth inhibition rate is greater than 85%) | 5 (Level 5: the growth inhibition rate is greater than 85%) | 5 (Level 5: the growth inhibition rate is greater than 85%) | 5 (Level 5: the growth inhibition rate is greater than 85%) |
| Cc1ncc(COC(=O)C(C)Oc2nc(F)c(Cl)c(N)c2Cl)s1 (centres unmarked) [Compound 157] | 5 (Level 5: the growth inhibition rate is greater than 85%) | 5 (Level 5: the growth inhibition rate is greater than 85%) | 5 (Level 5: the growth inhibition rate is greater than 85%) | 5 (Level 5: the growth inhibition rate is greater than 85%) | 5 (Level 5: the growth inhibition rate is greater than 85%) |
| CC(Oc1nc(F)c(Cl)c(N)c1Cl)C(=O)OCc1cscn1 (centres unmarked) [Compound 158] | 5 (Level 5: the growth inhibition rate is greater than 85%) | 5 (Level 5: the growth inhibition rate is greater than 85%) | 5 (Level 5: the growth inhibition rate is greater than 85%) | 5 (Level 5: the growth inhibition rate is greater than 85%) | 5 (Level 5: the growth inhibition rate is greater than 85%) |
| CC(Oc1nc(F)c(Cl)c(N)c1Cl)C(=O)SCc1cncs1 (centres unmarked) [Compound 159] | 5 (Level 5: the growth inhibition rate is greater than 85%) | 5 (Level 5: the growth inhibition rate is greater than 85%) | 5 (Level 5: the growth inhibition rate is greater than 85%) | 5 (Level 5: the growth inhibition rate is greater than 85%) | 5 (Level 5: the growth inhibition rate is greater than 85%) |
